This is an account of results in ChEMBL document CHEMBL1201862, “PubChem BioAssay data set” (2004).

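How tested: cells in 96-well plates exposed to compound for 48 hours at five concentrations. Here, GI50 denotes the concentration required for 50% inhibition of growth.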 Active and inactive are the calls of the source. No stated cut-off is given here; in the data, active = GI50 up to about 1.1 µM and inactive = higher. Where only a bound is given, the exact number is not on record here.

Common to all, as to assay: growth of human tumour cells (NCI), 48 h
The subject of test [1] is SF-539.
Test [2] concerns HT-29.
The test system of test [3] is RPMI-8226.
Test [4] deals with COLO 205.
Test [5] deals with PC-3.
In test [6] the test system is U-251.
Test [7] deals with HL-60.
Test [8] has as its system Malme-3M.
Test [9] has as its system NCI-H460.
The test system of test [10] is IGROV-1.
Test [11] relates to OVCAR-3.
Test [12] concerns MDA-MB-231.
Test [13] deals with NCI-H226.
Test [14] deals with M14.
Test [15] deals with OVCAR-4.
The test system of test [16] is HCT-15.
Test [17] relates to RXF 393.
Test [18] concerns A498.
The subject of test [19] is SK-MEL-5.
The test system of test [20] is UO-31.

For `O=CN1CCN(C(=O)c2cc(Cl)cc(Cl)c2)C1=S`, the GI50 is 20.2 µM (inactive) in [1]; 24.3 µM (inactive) in test [2]; 2.44 µM (inactive) in test [3]; 17.1 µM (inactive) in [4]; 16.6 µM (inactive) in test [5]; 17 µM (inactive) in [6]. For the same compound, the GI50 in [7] is 10.3 µM (inactive); in [8], 3.12 µM (inactive); in test [9] it was 22.5 µM (inactive); in test [10], 18.5 µM (inactive); in test [11], 14.8 µM (inactive); in test [12] it was 15.6 µM (inactive). The GI50 in test [13] is 14.7 µM (inactive); in [14] it was 15.6 µM (inactive); in test [15], 17.1 µM (inactive); in test [16], 17 µM; in test [17], 16 µM (inactive); in test [18] it was 15.3 µM (inactive).
For the compound `CCC[C@H](C)[C@H]1NC(=O)[C@@H](NC(=O)[C@@H](CC(C)C)N(C)C(=O)C2CCCN2C(=O)[C@H](C)O)[C@@H](C)OC(=O)[C@H](CC(C)C)N(C)C(=O)[C@@H]2CCCN2C(=O)[C@H](CC(C)C)NC(=O)[C@@H](C)C(=O)[C@H](C(C)C)OC(=O)C[C@@H]1O` (stereo partly specified), the GI50 in test [1], in [2], in test [3], in test [4], in test [5] and in [6] was < 0.0025 µM (active) in each case. The GI50 in [7], in test [8], in [9], in [19], in [10] and in [11] was < 0.0025 µM (active) throughout. The GI50 in test [12] was < 0.0025 µM (active); in test [13], < 0.0025 µM (active); in [14] it was < 0.0025 µM (active); in test [15] it was < 0.0025 µM (active); in test [20] it was 0.0107 µM (active); in [16] it was 0.0328 µM. Moreover, the GI50 in test [17] is < 0.0025 µM (active); in test [18] it was 0.0115 µM (active).
For the compound `CC1=NN(c2cccc(Cl)c2)C2(SCC(=O)N2c2nc3ccccc3s2)/C1=C\c1ccc(Cl)cc1` (stereo unspecified), the GI50 was 26.2 µM (inactive) in test [1]; 19.4 µM (inactive) in test [2]; 15.6 µM (inactive) in test [3]; 15.7 µM (inactive) in test [5]; 13.8 µM (inactive) in test [6]; 11.8 µM (inactive) in test [7]. Also, the GI50 in test [9] is 15.8 µM (inactive); in test [19] it was 13.8 µM (inactive); in test [10], 15 µM (inactive); in test [11] it was 16.8 µM (inactive); in test [12] it was 25.5 µM (inactive); in test [13], 23.8 µM (inactive). Besides, the GI50 in test [14] was 19.8 µM (inactive); in test [15], 17.3 µM (inactive); in test [20] it was 15.1 µM (inactive); in test [16] it was 13.9 µM; in test [17], 20.4 µM (inactive); in test [18], 17.3 µM (inactive).
`O=C1Nc2ccc(Br)cc2/C1=N/c1ccc(Cl)cc1`: the GI50 is 3.58 µM (inactive) in test [1]; 12.1 µM (inactive) in test [2]; 4.39 µM (inactive) in test [3]; 1.78 µM (inactive) in [4]; 25.3 µM (inactive) in [5]; 23.8 µM (inactive) in test [6]. Moreover, the GI50 in test [7] is 5.48 µM (inactive); in test [8] it was 24.8 µM (inactive); in test [9], 14.4 µM (inactive); in test [19], 4.15 µM (inactive); in [11], 15.8 µM (inactive); in test [12] it was 15.5 µM (inactive). Further, the GI50 is 23.4 µM (inactive) in test [13]; 20.7 µM (inactive) in test [14]; 13.5 µM (inactive) in [20]; 11.1 µM in test [16]; 18.5 µM (inactive) in test [17]; > 100 µM (inactive) in test [18].
With `C=CCC1(O)c2cccc(O)c2C(=O)c2c(O)cccc21`, the GI50 in test [1] was 57.8 µM (inactive); in test [2], 22.6 µM (inactive); in test [3], 31.7 µM (inactive); in [5] it was 26 µM (inactive); in test [6], 23.6 µM (inactive); in [7], 20.5 µM (inactive). Moreover, the GI50 in test [9] was 31.8 µM (inactive); in test [19], 29.4 µM (inactive); in test [10] it was 45.9 µM (inactive); in test [11] it was 47.9 µM (inactive); in test [12] it was 33.5 µM (inactive); in test [13], 45.7 µM (inactive). In addition, the GI50 in [14] was 20.8 µM (inactive); in [15] it was 28.4 µM (inactive); in [20], 27.8 µM (inactive); in [16], 17.7 µM; in test [17], 15.9 µM (inactive); in test [18], 29 µM (inactive).
Regarding `CC(=O)O[C@H]1C(=O)[C@@]2(C)[C@H]([C@H](OC(=O)c3ccccc3)[C@]3(O)C[C@H](OC(=O)[C@H](O)[C@@H](NC(=O)c4ccccc4)c4cccc(N(C)C)c4)C(C)=C1C3(C)C)[C@]1(OC(C)=O)CO[C@@H]1C[C@@H]2O`, the GI50 is 0.0668 µM (active) in test [1]; 0.0219 µM (active) in test [2]; 0.00968 µM (active) in [3]; 0.0432 µM (active) in [4]; 0.209 µM (active) in test [5]; 0.0608 µM (active) in [6]. The GI50 in [7] was 0.0122 µM (active); in test [9], 0.0419 µM (active); in test [19] it was 0.0417 µM (active); in [10] it was 0.0537 µM (active); in [11] it was 0.0308 µM (active); in test [12], 0.542 µM (active). The GI50 in test [13] was 0.665 µM (active); in [14] it was 0.098 µM (active); in [20], 1.96 µM (inactive); in test [16], 1.79 µM; in [17], 0.221 µM (active); in test [18] it was 0.579 µM (active).
Turning to `C[C@]12CCC(=O)C=C1CC[C@@H]1[C@@H]2CC[C@]2(C)C(=O)[C@H](n3ccnc3)C[C@@H]12`, the GI50 in test [1] is > 100 µM (inactive); in test [2] it was 27.4 µM (inactive); in test [3], > 100 µM (inactive); in test [4], > 100 µM (inactive); in test [5] it was > 100 µM (inactive); in [6], > 100 µM (inactive). The GI50 was 21.9 µM (inactive) in test [7]; > 100 µM (inactive) in [8]; > 100 µM (inactive) in [9]; 63.1 µM (inactive) in test [19]; > 100 µM (inactive) in test [10]; > 100 µM (inactive) in test [12]. Further, the GI50 in test [13] is > 100 µM (inactive); in test [14] it was > 100 µM (inactive); in test [15] it was > 100 µM (inactive); in test [20], > 100 µM (inactive); in [16], over 100 µM; in [17] it was > 100 µM (inactive). For the same compound, the GI50 in test [18] is > 100 µM (inactive).
Consider `Nc1cc(F)ccc1CC(=O)O`, for which the GI50 in [1], in test [2], in test [3], in test [4], in test [5] and in [6] was > 100 µM (inactive) in each case. Besides, the GI50 in test [7], in test [8], in [19], in [10], in test [12] and in test [13] was > 100 µM (inactive) in each case. Also, the GI50 in test [14] was > 100 µM (inactive); in test [20], > 100 µM (inactive); in test [16], over 100 µM; in test [17] it was > 100 µM (inactive); in test [18], > 100 µM (inactive).
Regarding `O=C1C(C(O)(C(F)(F)Cl)C(F)(F)Cl)CCC1C(O)(C(F)(F)Cl)C(F)(F)Cl` (stereo unspecified), the GI50 is 2.74 µM (inactive) in [1]; 3.26 µM (inactive) in test [2]; > 10 µM (inactive) in test [3]; 4.17 µM (inactive) in test [4]; 4.53 µM (inactive) in [5]; 4.4 µM (inactive) in test [6]. Moreover, the GI50 was > 10 µM (inactive) in test [7]; 5.47 µM (inactive) in test [8]; > 10 µM (inactive) in test [9]; 5.94 µM (inactive) in test [19]; 4.98 µM (inactive) in test [10]; 7.28 µM (inactive) in test [11]. Moreover, the GI50 in [12] is 3.34 µM (inactive); in [13], 3.6 µM (inactive); in test [14], 7.78 µM (inactive); in test [15], 3.4 µM (inactive); in [16], 3.91 µM; in test [17] it was 5.05 µM (inactive). The GI50 in test [18] was 3.85 µM (inactive).
For `Cn1c([C@H](C#N)c2ncccc2[N+](=O)[O-])nc2ccccc21`, the GI50 in test [1] is 31.1 µM (inactive); in test [2], > 100 µM (inactive); in test [3] it was > 100 µM (inactive); in [5] it was 86.1 µM (inactive); in test [6], 34.8 µM (inactive); in test [7], > 100 µM (inactive). Besides, the GI50 in test [8] is 83.2 µM (inactive); in [9], 76.4 µM (inactive); in test [11], > 100 µM (inactive); in test [12], > 100 µM (inactive); in test [13] it was > 100 µM (inactive); in test [14], > 100 µM (inactive). Besides, the GI50 in [20] was > 100 µM (inactive); in [16] it was over 100 µM; in [17], 19.5 µM (inactive); in test [18], > 100 µM (inactive).
